Experimental data from patent US20220370534A1, “EXTERNAL COMPOSITION FOR SKIN HAVING ITCHING RELIEVING EFFECT” (YANGSHENGTANG (ANJI) COSMETICS CO., LTD., priority 2019, published 2022).

Test system: mast cells
Assay: Release of interleukin-4 (IL-4) from mast cells stimulated with Compound 48/80
Assay type: cell-based
Details: sample 4 h, then Compound 48/80 20 mg/L 2 h, 8 duplicate wells, model group 67.6 ± 9.9, control group 34.4 ± 7.9
Description: According to the following test method, the effects of the […] samples A-E as prepared above on the release of IL-4 from mast cells were tested.
Experimental principle: The specific antigen is crosslinked with the IgE antibody bound to the cell membrane, resulting in cell activation and rapid secretion of inflammatory mediators related to granulation (histamine, IL-4, IL-13, etc.). […] In this study, Compound 48/80 was used to stimulate mast cells to degranulate and release the inflammatory mediator IL-4 to investigate the protective efficacy of the test samples on the allergic reaction of mast cells.
Experimental materials: Mast cells were provided by the Animal Center of Zhejiang Academy of Medical Sciences. […]
Experimental method: Each of samples was prepared using RPMI1640 medium, and each of samples was provided with 8 duplicate wells. Mast cells were inoculated into a 96-well culture plate at a density of 5×10^6/mL, 90 μL per well, and added with 10 μL/well of a corresponding sample; cultured in a 5% CO2 incubator at 37° C., and taken out after 4 h; in addition to the control group, the other groups were added with a stimulus 48/80 (final concentration 20 mg/L), and continued to incubate in an incubator at 37° C. for 2 h, and then centrifuged at 1500 rpm for 5 mins to get the supernatant, and the content of IL-4 in the supernatant was detected by Elisa (interleukin-4) kit.

For `O=C(O)c1cc(=O)c2c(OCC(O)COc3cccc4oc(C(=O)O)cc(=O)c34)cccc2o1` [Positive drug, sodium cromoglycate], the “Release % (IL-4 release from cell models)” value was 44.2 ± 12.3%.
